Entries after “also recorded” stand apart in the source; their conditions may differ. Where a SMILES comes first, the peptide text is derived from it.
How the values were obtained:
IDE [1] = molecular target: T1, IDE (Rattus norvegicus, UniProt P35559); assay: IDE digestion, products by RP-HPLC and MS; settings: 37°C
T1 sequence (P35559 1-1019): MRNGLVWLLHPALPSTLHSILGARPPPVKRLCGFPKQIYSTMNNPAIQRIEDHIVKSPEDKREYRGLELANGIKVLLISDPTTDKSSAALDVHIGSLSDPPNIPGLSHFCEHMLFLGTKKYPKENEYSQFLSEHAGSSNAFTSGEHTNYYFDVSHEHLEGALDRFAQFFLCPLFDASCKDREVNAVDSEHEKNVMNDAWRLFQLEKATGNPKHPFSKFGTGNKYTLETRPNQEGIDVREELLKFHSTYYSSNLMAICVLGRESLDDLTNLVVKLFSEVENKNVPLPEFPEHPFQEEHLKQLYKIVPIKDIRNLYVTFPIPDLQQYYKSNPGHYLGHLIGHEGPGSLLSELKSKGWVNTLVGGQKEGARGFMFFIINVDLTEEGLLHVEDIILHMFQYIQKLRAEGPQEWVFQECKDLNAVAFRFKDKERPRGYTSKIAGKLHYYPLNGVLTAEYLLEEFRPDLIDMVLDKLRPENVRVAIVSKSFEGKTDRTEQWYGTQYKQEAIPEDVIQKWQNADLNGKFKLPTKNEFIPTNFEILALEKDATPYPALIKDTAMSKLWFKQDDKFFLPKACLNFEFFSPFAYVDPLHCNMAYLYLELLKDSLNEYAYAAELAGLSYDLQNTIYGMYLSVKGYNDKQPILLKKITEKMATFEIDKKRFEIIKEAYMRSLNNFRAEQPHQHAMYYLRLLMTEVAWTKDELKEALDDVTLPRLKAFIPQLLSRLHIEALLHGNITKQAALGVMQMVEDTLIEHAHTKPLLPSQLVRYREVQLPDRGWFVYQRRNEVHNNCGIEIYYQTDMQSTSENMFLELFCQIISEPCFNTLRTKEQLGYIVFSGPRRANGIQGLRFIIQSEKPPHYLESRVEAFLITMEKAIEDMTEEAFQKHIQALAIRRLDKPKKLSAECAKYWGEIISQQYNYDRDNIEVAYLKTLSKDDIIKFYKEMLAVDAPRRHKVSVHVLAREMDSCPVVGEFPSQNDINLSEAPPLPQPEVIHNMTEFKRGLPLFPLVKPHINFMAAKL
Protocol: (§1) 16 µM T40 was incubated with or without 22 nM IDE (37°C) and the reaction stopped as indicated. (B) Specificity of IDE activity. […] For (A) and (B), digestion products were resolved (10% Tris-Tricine SDS-PAGE), electro-blotted onto nitrocellulose and probed with KD69 (specific for the T40). Marker proteins are indicated. Arrows indicate the positions of T40 monomers and dimers. (C) 60 µM T40 was incubated with or without 50 nM IDE (37°C) and products separated by RP-HPLC (peaks annotated a–h). (D) Positions of IDE initial cleavages (arrows) within T40 (2 min digestion). (E) Identity of the major peptides (italics) and of CSR species in peaks a–h, analyzed by MS.
(A) Positions of IDE initial cleavages (arrows) within AChE586-599. […] 63 µM AChE586-599 was incubated with or without 45 nM IDE (A) or 273 nM IDE (B)(37°C, 30 min) and RP-HPLC peaks analyzed by MS. […] AChE586-599 oligomers (16 µM) cross-linked by photo-induced cross-linking were incubated with or without 16.3 nM IDE (37°C). Digestion products were resolved (16.5% Tris-Tricine SDS-PAGE), electro-blotted onto nitrocellulose and probed with Mab 105A (specific for AChE586-599 in β-sheet conformation). Marker proteins are indicated.
To identify degradation products, 60 µM T40 was incubated with 50 nM IDE; 63 µM AChE586-599 with 45 nM or 273 nM IDE; and 40 µM AChE586-599 with 772 nM NEP and separated by reverse phase-HPLC (RP-HPLC). Peaks were collected and identities determined on a Q-TOF Micro mass spectrometer (Micromass, UK) with MassLynx 4.0 and MaxEnt 3 software. Lyophilized HPLC separated T40/IDE products were used for surface tension and seeding experiments.
Reaction products were resolved by RP-HPLC with a Sephasil C4 column (5 µm, 4.6×250 mm; Amersham Biosciences, UK) using a 5–95% linear gradient of acetonitrile in 0.1% trifluoroacetic acid over 25 min (flow rate 1 ml/min). The eluent was monitored by UV absorption at 280 nm.

NEP = NEP digestion, products by RP-HPLC and MS; type: in vitro ADME; settings: 37°C; for effect of NEP exposure on peptide level: 60 µM peptide, 1.2 µM NEP, 4 hours, 100 mM Tris-HCl pH 7.4, 1% Triton X-100, RP-HPLC
Protocol: Figure 4 NEP preferentially degrades monomeric forms of AChE586-599. (A) 60 µM of either substance P or T40 were incubated with or without 1.2 µM NEP (37°C, 4 hours) and the digestion mixture subjected to RP-HPLC. (B) Positions of NEP initial cleavages (arrows) within AChE586-599. (C) Cleavage map after complete NEP digestion of AChE586-599. 40 µM AChE586-599 was incubated with 772 nM NEP (30 min (B) or 4 hours (C), 37°C) and RP-HPLC peaks analyzed by MS. (D) NEP degrades AChE586-599 oligomers. […] Digestion products were analyzed as described in Figure 3C. Arrows indicate two digested AChE586-599 oligomers. (E) T40/IDE products are substrates for NEP. 60 µM T40 was incubated with 50 nM IDE (37°C, 30 min) and products separated by RP-HPLC. Peaks e–f (see Figure. 2C) were lyophilized, incubated with 772 nM NEP (37°C, 2 hours) and subjected to RP-HPLC.
60 µM substance P or T40 were incubated with or without 1.2 µM NEP (4 hours), stopped (0.5% trifluoroacetic acid) and subjected to RP-HPLC.

IDE [2] = molecular target: T1, IDE; assay: IDE digestion of T40, SDS-PAGE and western blot with KD69; settings: 16 µM T40, 22 nM IDE, 37°C
Protocol: as §1
(§2) IDE and NEP (Merck, UK) digestions were at 37°C in 100 mM KHPO4/KH2PO4 buffer pH 7.5 (buffer A) or 100 mM Tris-HCl pH 7.4, 1% Triton X-100 (buffer B) respectively. 16 µM T40 was incubated with 22 nM IDE or 309 nM NEP, and 16 or 14.8 µM AChE586-599 oligomers with 16.3 nM IDE or 285 nM NEP. Reactions were stopped by boiling in a Laemmli's dissociation buffer with 100 mM DTT and subjected to SDS-PAGE (10% Tris-Tricine for T40 and 16.5% Tris-Tricine for AChE586-599 oligomers). […]

IDE (insulysin), 45 nM = assay: IDE in 100 mM KHPO4/KH2PO4 buffer pH 7.5 (buffer A); settings: 37°C, up to 30 min
NEP (neprilysin), 772 nM = assay: NEP in 100 mM Tris-HCl pH 7.4, 1% Triton X-100 (buffer B); settings: 37°C, up to 4 hours
IDE (insulysin), 50 nM = assay: IDE in 100 mM KHPO4/KH2PO4 buffer pH 7.5 (buffer A); settings: 37°C, up to 2 hours
NEP (neprilysin), 1.2 µM = assay: NEP in 100 mM Tris-HCl pH 7.4, 1% Triton X-100 (buffer B); settings: 37°C, up to 4 hours
IDE [3] = molecular target: T1, IDE; assay: Specificity/inhibition of T40-degrading activity of IDE; type: biochemical; set-up: purchased Merck, UK; settings: 16 µM T40, 22 nM IDE, 37°C, 90 min
Protocol: as §1, §2

Compound: CSCC[C@H](NC(=O)[C@H](Cc1ccc(O)cc1)NC(=O)[C@H](CO)NC(=O)[C@H](CO)NC(=O)[C@H](Cc1c[nH]c2ccccc12)NC(=O)[C@H](CCCNC(=N)N)NC(=O)[C@H](Cc1c[nH]cn1)NC(=O)[C@H](Cc1ccccc1)NC(=O)[C@H](CCC(=O)O)NC(=O)[C@H](C)N)C(=O)N[C@H](C(=O)N[C@@H](Cc1c[nH]cn1)C(=O)N[C@@H](Cc1c[nH]c2ccccc12)C(=O)N[C@@H](CCCCN)C(=O)O)C(C)C [AChE586-599] (H-AEFHRWSSYMVHWK-OH)
- degradation of AChE586-599 by IDE (IDE [1]; 63 µM AChE586-599, 45 nM IDE, 30 min, buffer pH 7.5, RP-HPLC/MS): degraded
- extent of AChE586-599 digestion by IDE (IDE [1]; 63 µM AChE586-599, 273 nM IDE, 30 min, RP-HPLC/MS): complete IDE digestion
- time for complete digestion of AChE586-599 by NEP (NEP; 40 µM AChE586-599, 772 nM NEP, Tris-HCl pH 7.4, 1% Triton X-100, RP-HPLC/MS): ≤ 4 h

Compound: CSCC[C@H](NC(=O)[C@H](Cc1ccc(O)cc1)NC(=O)[C@H](CO)NC(=O)[C@H](CO)NC(=O)[C@H](Cc1c[nH]c2ccccc12)NC(=O)[C@H](CCCNC(=N)N)NC(=O)[C@H](Cc1c[nH]cn1)NC(=O)[C@H](Cc1ccccc1)NC(=O)[C@H](CCC(=O)O)NC(=O)[C@H](C)NC(=O)[C@H](CCCCN)NC(=O)[C@H](Cc1c[nH]c2ccccc12)NC(=O)[C@H](CCC(N)=O)NC(=O)[C@H](CCCNC(=N)N)NC(=O)[C@H](CCC(=O)O)NC(=O)[C@H](C)NC(=O)[C@H](CCC(=O)O)NC(=O)[C@H](CC(=O)O)NC(=O)[C@H](CC(C)C)NC(=O)[C@@H](NC(=O)[C@@H](N)CC(=O)O)[C@@H](C)O)C(=O)N[C@H](C(=O)N[C@@H](Cc1c[nH]cn1)C(=O)N[C@@H](Cc1c[nH]c2ccccc12)C(=O)N[C@@H](CCCCN)C(=O)N[C@@H](CC(N)=O)C(=O)N[C@@H](CCC(N)=O)C(=O)N[C@@H](Cc1ccccc1)C(=O)N[C@@H](CC(=O)O)C(=O)N[C@@H](Cc1c[nH]cn1)C(=O)N[C@@H](Cc1ccc(O)cc1)C(=O)N[C@@H](CO)C(=O)N[C@@H](CCCCN)C(=O)N[C@@H](CCC(N)=O)C(=O)N[C@@H](CC(=O)O)C(=O)N[C@@H](CCCNC(=N)N)C(=O)N[C@@H](CS)C(=O)N[C@@H](CO)C(=O)N[C@@H](CC(=O)O)C(=O)N[C@@H](CC(C)C)C(=O)O)C(C)C [T40] (H-DTLDEAERQWKAEFHRWSSYMVHWKNQFDHYSKQDRCSDL-OH)
- incubation time for complete disappearance of monomeric T40 with IDE (IDE [2]; 100 mM KHPO4/KH2PO4 buffer pH 7.5, western blot KD69): ≤ 80 min
- fate of dimeric T40 with IDE (IDE [2]; buffer pH 7.5, up to 80 min, western blot KD69): remained undigested
- extent of T40 digestion by IDE at 30 min (IDE [1]; 60 µM T40, 50 nM IDE, buffer pH 7.5, RP-HPLC C4, UV 280 nm): near complete digestion
- effect of NEP exposure on peptide level (NEP): remained unchanged

Compound: AEFHRWSSYMVHWK
- cleaved bond (IDE (insulysin), 45 nM): Ser8-Tyr9, first_seen, 30 min; also recorded: His12-Trp13, first_seen, 30 min
- cleaved bond (NEP (neprilysin), 772 nM): Ser8-Tyr9, first_seen, 30 min; also recorded: His12-Trp13, first_seen, 30 min; also recorded: H4-R5, first_seen, 30 min

Compound: DTLDEAERQWKAEFHRWSSYMVHWKNQFDHYSKQDRCSDL
- cleaved bond (IDE (insulysin), 50 nM): Phe14-His15, first_seen, 2 min; also recorded: Ser19-Tyr20, first_seen, 2 min; also recorded: Trp24-Lys25, first_seen, 2 min
- not cleaved (NEP (neprilysin), 1.2 µM): levels remained unchanged after exposure to NEP (4 hours)

Compound: insulin
- concentration giving complete inhibition of IDE degradation of T40 (IDE [3]; western blot, equimolar to T40): 16 µM
- inhibition of IDE degradation of T40 (IDE [3]; insulin or IgG 2–16 µM, 1,10-phenanthroline 1 and 10 mM): dose dependent inhibition

Compound: substance P [reference compound]
- effect of NEP exposure on peptide level (NEP): degradation
